In one assay the test system is transmembrane TNFα. Particulars: murine SP2/O myeloma cells with cleavage resistant transmembrane TNFα; Scatchard analyses; cited from earlier work.
The subject of assay [1] is gut T-cell cultures from patients with Crohn's disease. Format: cell-based, human.
Assay [2] has the same test system. The format is cell-based, human. The source holds these as a separate data set.
In assay [3] the test system is activated gut T-lymphocytes in Crohn's disease. Format: cell-based, human.

Where “and” joins values, the source holds several entries; their conditions need not be identical. Equal entries are not always repeated.

transmembrane TNFα, sequence (P01375 88-233 limits assumed): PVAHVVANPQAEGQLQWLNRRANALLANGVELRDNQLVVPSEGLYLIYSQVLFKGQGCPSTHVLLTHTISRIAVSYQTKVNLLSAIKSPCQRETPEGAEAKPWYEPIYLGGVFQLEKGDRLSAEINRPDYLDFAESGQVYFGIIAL

“Infliximab: chimeric TNFα antibody with high avidity for transmembrane TNFα, obtained from Centocor”: the “Infliximab molecules bound per cell” value in the assay on transmembrane TNFα was “about 35000 molecules per cell”. The “Proliferation rate (in words)” value in assay [1] is given as “did not change the proliferation rate”. Also, in assay [2], the “Amount of propidium iodide and Annexin-FITC positive cells compared with SEA alone” value was “did not increase”; the “Apoptosis (in words)” value is “did not induce any apoptosis”. For the same substance, in assay [3], the “24 hour production of IFNγ (in words)” value is “reduction”; the “Production of IFNγ and TNFα (in words)” value is on record as “reduced”; the “Reduction of IFNγ production by Infliximab” value is 68% and 43% and 49% and 56%; the “Reduction of TNFα production by Infliximab” value was 97%.

The values are drawn from patent US20020001841A1, “CONTINUOUS T-CELL LINES” (priority 1998, published 2002).
